From the supplement of paper PMC10307832

Columns and labels:
Experiment in all cases: relative viability (nuclei count vs DMSO), 5 days (fraction); higher = more cells survive
[1] = compound: COc1cccc2cc(-c3nc([C@H]4CC[C@H](C(=O)O)CC4)n4ncnc(N)c34)[nH]c12 [OSI-027] + C[C@]1(O)C[C@@H](c2nc(-c3ccc4ccc(-c5ccccc5)nc4c3)c3c(N)nccn32)C1 [Linsitinib] (partner 1 µM)
Summary of the method: (§1)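 Relative viability equals treated-well nuclei counts divided by vehicle-well nuclei counts. Counts came from 4× images of lung cancer cell lines grown in 1536-well plates for 5 days after pin-tool dosing on the day after seeding. Dosing used one drug alone or a fixed anchor-drug dose plus five library-drug doses (not always all listed) in √10 steps, and values are medians of duplicate plates.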

[2] = compound: CCCS(=O)(=O)Nc1ccc(F)c(C(=O)c2c[nH]c3ncc(-c4ccc(Cl)cc4)cc23)c1F [Vemurafenib] + Cc1cc(Nc2cc(N3CCN(C)CC3)nc(Sc3ccc(NC(=O)C4CC4)cc3)n2)n[nH]1 [Tozasertib] (partner 0.1 µM)
Summary of the method: as §1

[3] = compound: CCCS(=O)(=O)Nc1ccc(F)c(C(=O)c2c[nH]c3ncc(-c4ccc(Cl)cc4)cc23)c1F [Vemurafenib] + CC1(C)CCC(c2ccc(Cl)cc2)=C(CN2CCN(c3ccc(C(=O)NS(=O)(=O)c4ccc(N[C@H](CCN5CCOCC5)CSc5ccccc5)c(S(=O)(=O)C(F)(F)F)c4)cc3)CC2)C1 [Navitoclax] (partner 0.5 µM)
Summary of the method: as §1

[4] = compound: CCCS(=O)(=O)Nc1ccc(F)c(C(=O)c2c[nH]c3ncc(-c4ccc(Cl)cc4)cc23)c1F [Vemurafenib] + Nc1ncn([C@H]2C[C@H](O)[C@@H](CO)O2)c(=O)n1 [Decitabine] (partner 2 µM)
Summary of the method: as §1

Cell Line	relative viability ([1]; first compound 0.01 µM)	relative viability ([1]; first compound 0.03162 µM)	relative viability ([1]; first compound 0.1 µM)	relative viability ([1]; first compound 0.3162 µM)	relative viability ([1]; first compound 1 µM)	relative viability ([2]; first compound 0.03162 µM)	relative viability ([2]; first compound 0.1 µM)	relative viability ([2]; first compound 0.3162 µM)	relative viability ([2]; first compound 1 µM)	relative viability ([3]; first compound 0.03162 µM)	relative viability ([3]; first compound 0.1 µM)	relative viability ([3]; first compound 0.3162 µM)	relative viability ([3]; first compound 1 µM)	relative viability ([4]; first compound 0.03162 µM)	relative viability ([4]; first compound 0.1 µM)	relative viability ([4]; first compound 0.3162 µM)	relative viability ([4]; first compound 1 µM)
LXF-289	0.995	1.06	0.972	0.956	0.445	0.195	0.172	0.149	0.169	0.853	0.883	0.951	1.03	0.329	0.303	0.377	0.35
NCI-H596	0.981	0.978	1.03	0.779	0.483	0.886	0.767	0.813	0.904	0.93	0.728	1.04	0.842	0.974	0.959	0.922	0.864
NCI-H1355	0.759	0.687	0.643	0.374	0.218	0.545	0.559	0.56	0.435	0.895	0.96	0.99	0.976	0.344	0.348	0.363	0.37
NCI-H727	0.239	0.344	0.281	0.229	0.264	0.506	0.584	0.808	0.775	0.518	0.366	0.613	0.438	0.688	0.762	0.964	0.866
NCI-H2023	0.622	0.507	0.566	0.292	0.143	0.335	0.241	0.273	0.18	0.974	1.03	1.03	1.02	0.228	0.224	0.257	0.246
NCI-H2009	1.25	1.2	1.16	1.03	0.765	0.698	0.644	0.625	0.648	1.14	1.13	1.01	1.05	0.394	0.341	0.341	0.438
HCC-78	0.469	0.386	0.296	0.255	0.232	0.405	0.316	0.507	0.468	0.818	0.608	1.13	0.656	0.61	0.57	0.705	0.744
NCI-H322M	0.805	0.778	0.787	0.589	0.868	0.426			0.446	1.09		1.44	1.1	0.721		0.86	0.707
